{"source": "patent US9850267B2", "about": "“Crystalline fosaprepitant dicyclohexylamine salt and its preparation” (Navinta, LLC, priority 2015, dated 2017)", "origin": "cited, not measured here", "conditions": "white to off-white amorphous powder"}
{"smiles": "C[C@@H](O[C@H]1OCCN(Cc2nc(O)n(P(=O)(O)O)n2)[C@H]1c1ccc(F)cc1)c1cc(C(F)(F)F)cc(C(F)(F)F)c1", "note": "[Fosaprepitant dimeglumine, fosaprepitant dimeglumine]", "values": [{"measurement": "solubility in water", "result": "freely soluble in water"}]}
